Experimental data published in patent US8846656B2, “Tetrahydropyrido-pyridine and tetrahydropyrido-pyrimidine compounds and use thereof as C5a receptor modulators” (Novartis AG, priority 2011, dated 2014).
Values joined by “and” are separate entries in the source; they are usually repeats but may differ in a detail not shown here. Identical values can stand only once.

Biological target: human C5aR (Homo sapiens (Human), UniProt P21730)
Test: FLIPR assay: inhibition of C5a-mediated calcium mobilization
Type: cell-based
Conditions: stable cell line over expressing human C5aR & Gα15, human C5a at EC50 (0.1-0.25 nM)
Protocol: Compounds were tested for their ability to inhibit C5a-mediated calcium mobilization using a stable cell line over expressing the human C5aR & the Gα15 protein on the FLIPR (Fluorescent Imaging Plate Reader) Tetra system. Cells were maintained in culture media containing DMEM (Dulbecco's Modified Eagle Medium) with 4.5 g/L glucose, 10% fetal bovine serum, 100 U/mL, 1× non-essential amino acid, and 250 μg/mL G418 (Geneticin). Prior to testing of compounds, cells were plated at 10,000 cells/well in clear bottom 384-well black plate, and incubated overnight at 37° C. with 5% CO2. On the day of experiment, culture media was removed, and replaced with assay buffer HBSS (Hanks' Balanced Salt Solution) with 20 mM HEPES (4-(2-hydroxyethyl)-1-piperazineethanesulfonic acid) and 0.1% BSA (bovine serum albumin) BSA containing calcium 5 dye (Molecular Devices) and 2.5 mM probenecid. After 1 hour incubation at 37° C., 5% CO2 for 60 min, cells were pre-incubated with compounds for 30 minutes at room temperature, in 1% DMSO (dimethyl sulfoxide).

Chain of human C5aR (P21730 whole entry): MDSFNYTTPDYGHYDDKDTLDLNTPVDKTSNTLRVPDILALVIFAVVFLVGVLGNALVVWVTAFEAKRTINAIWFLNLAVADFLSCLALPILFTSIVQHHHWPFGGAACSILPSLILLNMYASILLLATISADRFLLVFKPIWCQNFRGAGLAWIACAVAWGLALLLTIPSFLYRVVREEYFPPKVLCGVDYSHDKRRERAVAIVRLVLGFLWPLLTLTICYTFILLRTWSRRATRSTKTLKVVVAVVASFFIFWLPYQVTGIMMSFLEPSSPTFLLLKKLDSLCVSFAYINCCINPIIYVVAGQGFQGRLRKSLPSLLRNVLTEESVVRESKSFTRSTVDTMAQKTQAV

SMILES | IC50
CO[C@@H]1CCN(c2nc(-c3c(C)ccc4[nH]nc(C)c34)nc3c2CN(c2c(Cl)c(C4CC4)nn2C)CC3)CC1(C)C [Example 55-G, (R)-6-(4-Chloro-3-cyclopropyl-1-methyl-1H-pyrazol-5-yl)-2-(3,5-dimethyl-1H-indazol-4-yl)-4-(4-methoxy-3,3-dimethylpiperidin-1-yl)-5,6,7,8-tetrahydropyrido[4,3-d]pyrimidine] | 4 nM and 2 nM
Cc1ccc(C)c(-c2nc3c(c(N4CCN(CC(N)=O)C[C@H]4C)n2)CN(c2cc(C(C)C)ccc2C)CC3)c1 [Example 24-C, (R)-2-(4-(2-(2,5-Dimethylphenyl)-6-(5-isopropyl-2-methylphenyl)-5,6,7,8-tetrahydropyrido[4,3-d]pyrimidin-4-yl)-3-methylpiperazin-1-yl)acetamide] | 31 nM
CO[C@@H]1CCN(c2nc(-c3c(C)ccc4[nH]nc(C)c34)nc3c2CN(c2c(Cl)c(C(F)F)nn2C)CC3)CC1(C)C [Example 55-I, (R)-6-(4-chloro-3-(difluoromethyl)-1-methyl-1H-pyrazol-5-yl)-2-(3,5-dimethyl-1H-indazol-4-yl)-4-(4-methoxy-3,3-dimethylpiperidin-1-yl)-5,6,7,8-tetrahydropyrido[4,3-d]pyrimidine] | 1 nM
CO[C@H]1C[C@H]2CC[C@@H](C1)N2c1nc(-c2c(C)cccc2C)nc2c1CN(c1cc(C3(C)COC3)ccc1C)CC2 [Example 21-X, 2-(2,6-dimethylphenyl)-4-((3-endo)-3-methoxy-8-azabicyclo[3.2.1]octan-8-yl)-6-(2-methyl-5-(3-methyloxetan-3-yl)phenyl)-5,6,7,8-tetrahydropyrido[4,3-d]pyrimidine] | 308 nM
Cc1ccc(C(C)C)cc1N1CCc2nc(-c3cccc4[nH]cc(C)c34)nc(N3CCC(O)C(C)(C)C3)c2C1 (stereo not drawn) [Example 17-AI, l-(6-(5-isopropyl-2-methylphenyl)-2-(3-methyl-1H-indol-4-yl)-5,6,7,8-tetrahydropyrido[4,3-d]pyrimidin-4-yl)-3,3-dimethylpiperidin-4-ol] | 19 nM
Cc1ccc(C(C)C)cc1N1CCc2nc(-c3c(C4CC4)cnc4[nH]ccc34)nc(N3CCCC(C)(C)C3)c2C1 [Example 20-D, 2-(5-Cyclopropyl-1H-pyrrolo[2,3-b]pyridin-4-yl)-4-(3,3-dimethylpiperidin-1-yl)-6-(5-isopropyl-2-methylphenyl)-5,6,7,8-tetrahydropyrido[4,3-d]pyrimidine] | 164 nM
Cc1ccc(C(C)C)cc1N1CCc2nc(-c3cccc4[nH]cc(C)c34)nc(N3CCC[C@@H]3CO)c2C1 [Example 17-AZ, (R)-(1-(6-(5-isopropyl-2-methylphenyl)-2-(3-methyl-1H-indol-4-yl)-5,6,7,8-tetrahydropyrido[4,3-d]pyrimidin-4-yl)pyrrolidin-2-yl)methanol] | 39 nM
CO[C@@H]1CCN(c2nc(-c3cccc4[nH]cc(C)c34)nc3c2CN(c2cc(C(C)C)ccc2C)CC3)CC1(C)C [Example 17-AM, (R)-6-(5-Isopropyl-2-methylphenyl)-4-(4-methoxy-3,3-dimethylpiperidin-1-yl)-2-(3-methyl-1H-indol-4-yl)-5,6,7,8-tetrahydropyrido[4,3-d]pyrimidine] | 2 nM
CC(=O)N1CCN(c2nc(-c3cccc4[nH]cc(C)c34)nc3c2CN(c2cc(C(C)C)ccc2C)CC3)CC12CC2 [Example 53, 1-(7-(6-(5-Isopropyl-2-methylphenyl)-2-(3-methyl-1H-indol-4-yl)-5,6,7,8-tetrahydropyrido[4,3-d]pyrimidin-4-yl)-4,7-diazaspiro[2.5]octan-4-yl)ethanone] | 18 nM
Cc1cccc(C)c1-c1nc2c(c(N3CCCC(C)(C)C3)n1)CN(c1cc(C(C)C)nn1C)CC2 [Example 16-I, 2-(2,6-Dimethylphenyl)-4-(3,3-dimethylpiperidin-1-yl)-6-(3-isopropyl-1-methyl-1H-pyrazol-5-yl)-5,6,7,8-tetrdhydropyrido[4,3-d]pyrimidine] | 48 nM
COc1ccc(Cl)cc1-c1nc2c(c(N3CCCC(C)(C)C3)n1)CN(c1cc(C(C)C)ccc1C)CC2 [Example 19-Q, 2-(5-chloro-2-methoxyphenyl)-4-(3,3-dimethylpiperidin-1-yl)-6-(5-isopropyl-2-methylphenyl)-5,6,7,8-tetrahydropyrido[4,3-d]pyrimidine] | 112 nM
Cc1ccc(C(C)C)cc1N1CCc2nc(-c3cccc4[nH]cc(C)c34)nc(N3CC(N(C)C)C3)c2C1 [Example 17-BG, 1-(6-(5-isopropyl-2-methylphenyl)-2-(3-methyl-1H-indol-4-yl)-5,6,7,8-tetrahydropyrido[4,3-d]pyrimidin-4-yl)-N,N-dimethylazetidin-3-amine] | 15 nM
CO[C@H]1CCN(c2nc(-c3cccc4[nH]cc(C)c34)nc3c2CN(c2cc(C4CC4)ccc2C)CC3)CC1(C)C [Example 19-N, (S)-6-(5-cyclopropyl-2-methylphenyl)-4-(4-methoxy-3,3-dimethylpiperidin-1-yl)-2-(3-methyl-1H-indol-4-yl)-5,6,7,8-tetrahydropyrido[4,3-d]pyrimidine] | 29 nM
COc1ccc(C)c(N2CCc3nc(-c4c(C)ccc5[nH]ncc45)cc(C)c3C2)c1 [Example 46-C] | 25 nM
Cc1ccccc1N1CCc2nc(-c3c(C)cccc3C)nc(N3CCOC(C)(C)C3)c2C1 [Example 17-Y, 4-(2-(2,6-dimethylphenyl)-6-(o-tolyl)-5,6,7,8-tetrahydropyrido[4,3-d]pyrimidin-4-yl)-2,2-dimethylmorpholine] | 160 nM
CCO[C@@H]1CCN(c2nc(-c3c(C)ccc4[nH]nc(C)c34)nc3c2CN(c2c(F)c(C4CC4)nn2C)CC3)CC1(C)C [Example 56-E, (R)-6-(3-cyclopropyl-4-fluoro-1-methyl-1H-pyrazol-5-yl)-2-(3,5-dimethyl-1H-indazol-4-yl)-4-(4-ethoxy-3,3-dimethylpiperidin-1-yl)-5,6,7,8-tetrahydropyrido[4,3-d]pyrimidine] | 2 nM
CO[C@H]1CCN(c2nc(-c3cccc4cnn(C)c34)nc3c2CN(c2cc(C4(C)COC4)ccc2C)CC3)CC1(C)C [Example 19-L, (S)-4-(4-methoxy-3,3-dimethylpiperidin-1-yl)-2-(1-methyl-1H-indazol-7-yl)-6-(2-methyl-5-(3-methyloxetan-3-yl)phenyl)-5,6,7,8-tetrahydropyrido[4,3-d]pyrimidine] | 746 nM
CO[C@H]1CCN(c2nc(-c3ccccc3C(F)(F)F)nc3c2CN(c2cc(C4CC4)ccc2C)CC3)CC1(C)C [Example 19-K, (S)-6-(5-cyclopropyl-2-methylphenyl)-4-(4-methoxy-3,3-dimethylpiperidin-1-yl)-2-(2-(trifluoromethyl)phenyl)-5,6,7,8-tetrahydropyrido[4,3-d]pyrimidine] | 65 nM

More lines, now with the values ahead:

IC50 | SMILES
74 nM | COCCCOc1nc(-c2c(C)cccc2C)nc2c1CN(c1cc(C(C)C)ccc1C)CC2 [Example 39-D, 2-(2,6-Dimethylphenyl)-6-(5-isopropyl-2-methylphenyl)-4-(3-methoxypropoxy)-5,6,7,8-tetrahydropyrido[4,3-d]pyrimidine]
21 nM | Cc1ccc(C(C)C)cc1N1CCc2nc(-c3cccc4[nH]nc(C)c34)cc(C)c2C1 [Example 41-E, 6-(5-isopropyl-2-methylphenyl)-4-methyl-2-(3-methyl-1H-indazol-4-yl)-5,6,7,8-tetrahydro-1,6-naphthyridine]
30 nM | Cc1ccc(C(C)C)cc1N1CCc2nc(-c3cccc4[nH]cc(C)c34)nc(N[C@@H](CO)C(C)C)c2C1 [Example 17-M, (R)-2-((6-(5-isopropyl-2-methylphenyl)-2-(3-methyl-1H-indol-4-yl)-5,6,7,8-tetrahydropyrido[4,3-d]pyrimidin-4-yl)amino)-3-methylbutan-1-ol]
94 nM | CNc1nc(-c2cccc3[nH]cc(C)c23)nc2c1CN(c1cc(C(C)C)ccc1C)CC2 [Example 17-AJ, 6-(5-isopropyl-2-methylphenyl)-N-methyl-2-(3-methyl-1H-indol-4-yl)-5,6,7,8-tetrahydropyrido[4,3-d]pyrimidin-4-amine]
131 nM | [2H]C1([2H])c2c(C)cc(-c3c(CC)cccc3CC)nc2CCN1c1c(C)ccnc1C [Example 44-D, 2-(2,6-Diethylphenyl)-6-(2,4-dimethylpyridin-3-yl)-4-methyl-5,6,7,8-tetrahydro(5,5-^2H2)-1,6-naphthyridine]
180 nM | CCc1cccc(CC)c1-c1cc(C)c2c(n1)CCN(c1ccc(C)cc1C)C2 [Example 40-L, 2-(2,6-diethylphenyl)-6-(2,4-dimethylphenyl)-4-methyl-5,6,7,8-tetrahydro-1,6-naphthyridine]
4 nM | [2H]C1([2H])c2c(C)cc(-c3c(CC)cccc3CC)nc2CC(C)N1c1cc(C(C)C)ccc1C (single isomer, unassigned) [Example 42-L, 2-(2,6-diethylphenyl)-6-(5-isopropyl-2-methylphenyl)-4,7-dimethyl-5,6,7,8-tetrahydro(5,5-^2H2)-1,6-naphthyridine]
217 nM | [2H]C1([2H])c2c(C)cc(-c3c(CC)cccc3CC)nc2CC(C)N1c1cc(C(C)C)ccc1C (single isomer, unassigned) [Example 42-K, 2-(2,6-diethylphenyl)-6-(5-isopropyl-2-methylphenyl)-4,7-dimethyl-5,6,7,8-tetrahydro(5,5-^2H2)-1,6-naphthyridine]
790 nM | COCCN(C)c1cc(-c2c(C)cccc2C)nc2c1C(=O)N(c1cc(C(C)C)ccc1C)CC2 [Example 50-E, 2-(2,6-dimethylphenyl)-6-(5-isopropyl-2-methylphenyl)-4-((2-methoxyethyl)(methyl)amino)-7,8-dihydro-1,6-naphthyridin-5(6H)-one]
